According to paper PMC6893557, “Discovery of Non-peptide Small Molecule Allosteric Modulators of the Src-family Kinase, Hck” (Frontiers in Chemistry, 2019):
Several values for one entry are separate records, joined by “and”; a condition that tells them apart may be missing. Equal values may be shown once.

How the values were obtained:
Hck U-SH32-L (Hck-U32L) = target: T1, Hck U-SH32-L (Hck-U32L) (Homo sapiens, UniProt P08631); experiment: SPR binding, Hck unique-SH3-SH2-linker protein; conditions: kinetic KD, 1:1 Langmuir model, ± S.E., NI = no interaction, read-out: KD, Hck proteins U-SH32-L
T1 construct: including the N-terminal unique region, followed by the SH3 and SH2 domains, and the SH2-kinase linker; made in house; host or cells: E. coli
Protocol: (§1) SPR analysis was performed on a Reichert 4SPR instrument (Reichert Technologies) using four-channel carboxymethyl dextran hydrogel biosensor chips (Reichert #13206066). Recombinant purified Hck proteins were covalently attached to the chip surface via standard amine coupling chemistry (Grover et al., [2015]). Compounds were prepared in 20 mM Tris-HCl, pH 8.3, 150 mM NaCl, and 1% DMSO and flowed past the immobilized proteins and a reference channel at a flow rate of 50 μL/min for 60 s over a range of concentrations. The binding reaction was followed by dissociation for 120 s, followed by surface regeneration using 10 mM HEPES, pH 7.5, containing 150 mM NaCl, 3 mM EDTA, and 0.05% polysorbate 20, at a flow rate of 50 μL/min for 30 s. All sensorgrams were recorded in triplicate, corrected for buffer effects, and fitted with the 1:1 Langmuir binding model using the TraceDrawer software (Reichert).
(§2) Interaction was monitored to equilibrium, followed by a dissociation phase. The resulting sensorgrams were best-fit to determine the kinetic rate constants and corresponding KD values, where KD = koff/kon. As positive controls, we also monitored the interaction of peptide ligands for the SH3 and SH2 domains.

Fgr SH32 = target: T2, Fgr SH32 (Homo sapiens, UniProt P09769); experiment: SPR binding, Fgr dual SH3-SH2 domain protein; conditions: kinetic KD, 1:1 Langmuir model, ± S.E., NI = no interaction; for Kd: read-out: KD, Fgr proteins SH32
T2 construct: including a dual SH3-SH2 domain protein; made in house; host or cells: E. coli
Protocol: as §1

Hck SH32-L = target: T3, Hck SH32-L (Homo sapiens, UniProt P08631); experiment: SPR binding, Hck SH3-SH2-linker protein; conditions: for Kd: kinetic KD, 1:1 Langmuir model, ± S.E., NI = no interaction, read-out: KD, Hck proteins SH32-L
T3 construct: an SH3-SH2-linker protein lacking the N-terminal unique domain; made in house; host or cells: E. coli
Protocol: as §1, §2

Hck U32L protein = target: T4, Hck U32L protein (Homo sapiens, UniProt P08631); experiment: Fluorescence polarization (FP) assay: displacement of VSL12 probe peptide from Hck-U32L; type: binding; conditions: IC50, inhibition of VSL12 peptide FP signal, Hck-U32L plus fluorescent VSL12 probe; two independent determinations ± S.E., each data point in triplicate
T4 construct: including the N-terminal unique region, followed by the SH3 and SH2 domains, and the SH2-kinase linker; made in house; host or cells: E. coli
Protocol: For the FP assay, the peptide was labeled with 6-carboxyfluorescein at its N-terminus. […] Molecular weight and purity of all peptides were verified by mass spectrometry. Stock solutions (10 mM) were prepared in a 1:1 mixture of DMSO and FP assay buffer (20 mM Tris-HCl, pH 8.3) for the labeled peptide and FP assay buffer for the unlabeled peptide. Stock solutions were stored at −20°C.
FP assays were performed in low-volume black 384-well plates with a non-binding surface (Corning #3676). Peptides and proteins were added to each well in FP assay buffer for a final assay volume of 20 μL and mixed by shaking for 5 min at room temperature. […] Raw fluorescence intensity was also read at the same wavelengths for each assay.
Screening libraries were purchased from ChemDiv (10,000 non-peptide peptidomimetic library) and ChemBridge (50,000 compound diversity library). Each library compound was screened at 50 μM and a final DMSO concentration of 1%. […] Each plate contained 32 wells of the Hck U32L protein plus probe peptide and DMSO as positive controls, and 32 wells of mutant Hck U32L-W118A protein plus probe peptide and DMSO as negative controls. Results for each compound test well were ranked by z score analysis according to the formula: z = (sample FP—mean FPsamples)/standard deviationsamples (Shun et al., [2011]). Potential hit compounds, defined as those that inhibited the FP signal by at least 30% and/or with z scores < −3.0, were then retested in quadruplicate using the FP assay under screening assay conditions.
The target protein for HTS consisted of the entire regulatory region of the p59 form of human Hck, including the N-terminal unique region, followed by the SH3 and SH2 domains, and the SH2-kinase linker (referred to hereafter as the Hck “U32L” protein). […] The principle of the assay is illustrated in Figure 2A. Binding of the probe peptide to the SH3 domain in the target protein slows its rotation, resulting in an increase in the FP signal. Library compounds that interfere with probe binding or stabilize SH3-linker interaction reduce the FP signal, and score as hits.

Hck-YEEI = target: T5, Hck-YEEI (Homo sapiens, UniProt P08631, Q523E/Q524E/Q525I); experiment: SPR binding, near-full-length Hck; conditions: kinetic KD, 1:1 Langmuir model, ± S.E., NI = no interaction, read-out: KD, Hck proteins Hck-YEEI
T5 construct: a near-full-length form of Hck consisting of the SH3, SH2 and kinase domains plus the tyrosine-phosphorylated tail; made in house; host or cells: Sf9 insect cells
Protocol: as §1, §2

Fgr-YEEI = target: T6, Fgr-YEEI (Homo sapiens, UniProt P09769, G526I/P525E/Q524E); experiment: SPR binding, near-full-length Fgr; conditions: kinetic KD, 1:1 Langmuir model, ± S.E., NI = no interaction; for Kd: read-out: KD, Fgr proteins Fgr-YEEI
T6 construct: near-full-length Fgr, lacking only the unique domain and encoding the same modified C-terminal tail as near-full-length Hck (Fgr-YEEI); made in house; host or cells: Sf9 insect cells
Protocol: as §1

Fgr U-SH32-L = target: T7, Fgr U-SH32-L (Homo sapiens, UniProt P09769); experiment: SPR binding, Fgr unique-SH3-SH2-linker protein; conditions: kinetic KD, 1:1 Langmuir model, ± S.E., NI = no interaction; for Kd: read-out: KD, Fgr proteins U-SH32-L
T7 construct: the complete regulatory region, consisting of the unique, SH3, and SH2 domains plus the SH2-kinase linker (U32L protein); made in house; host or cells: E. coli
T7 sequence (P09769 1-257 limits assumed): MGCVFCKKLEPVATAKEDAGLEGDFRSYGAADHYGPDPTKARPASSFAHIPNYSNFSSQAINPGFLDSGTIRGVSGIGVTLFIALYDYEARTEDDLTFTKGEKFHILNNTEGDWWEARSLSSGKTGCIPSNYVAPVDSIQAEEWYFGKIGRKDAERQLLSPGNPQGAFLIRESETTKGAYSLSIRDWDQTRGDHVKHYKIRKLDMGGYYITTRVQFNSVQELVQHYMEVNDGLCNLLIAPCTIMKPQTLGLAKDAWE
Protocol: as §1

T2 sequence (P09769 77-241 limits assumed): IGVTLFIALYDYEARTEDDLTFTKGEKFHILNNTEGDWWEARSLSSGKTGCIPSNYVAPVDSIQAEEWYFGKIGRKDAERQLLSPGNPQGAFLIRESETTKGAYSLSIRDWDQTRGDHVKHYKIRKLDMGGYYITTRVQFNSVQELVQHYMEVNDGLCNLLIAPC
T3 sequence (P08631 72-256 limits assumed): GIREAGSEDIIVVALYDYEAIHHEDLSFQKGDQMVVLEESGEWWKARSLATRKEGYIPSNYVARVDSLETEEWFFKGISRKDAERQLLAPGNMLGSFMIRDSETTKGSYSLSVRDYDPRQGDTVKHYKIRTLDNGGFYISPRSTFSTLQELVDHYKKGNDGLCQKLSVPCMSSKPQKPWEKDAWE
T6 sequence (P09769 77-526 Q524E/P525E/G526I): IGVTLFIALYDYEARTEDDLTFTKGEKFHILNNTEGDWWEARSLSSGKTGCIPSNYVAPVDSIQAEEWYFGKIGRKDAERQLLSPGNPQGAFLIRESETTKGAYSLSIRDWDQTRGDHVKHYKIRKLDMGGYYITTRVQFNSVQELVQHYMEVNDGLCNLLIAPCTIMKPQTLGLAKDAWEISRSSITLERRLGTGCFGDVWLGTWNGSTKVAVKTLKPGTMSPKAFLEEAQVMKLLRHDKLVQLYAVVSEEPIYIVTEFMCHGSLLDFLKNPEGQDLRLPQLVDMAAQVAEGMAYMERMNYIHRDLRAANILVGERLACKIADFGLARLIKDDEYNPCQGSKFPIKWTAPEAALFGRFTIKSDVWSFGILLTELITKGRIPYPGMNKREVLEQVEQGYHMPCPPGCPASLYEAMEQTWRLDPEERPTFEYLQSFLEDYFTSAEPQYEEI
T5 sequence (P08631 78-526 Q523E/Q524E/Q525I limits assumed): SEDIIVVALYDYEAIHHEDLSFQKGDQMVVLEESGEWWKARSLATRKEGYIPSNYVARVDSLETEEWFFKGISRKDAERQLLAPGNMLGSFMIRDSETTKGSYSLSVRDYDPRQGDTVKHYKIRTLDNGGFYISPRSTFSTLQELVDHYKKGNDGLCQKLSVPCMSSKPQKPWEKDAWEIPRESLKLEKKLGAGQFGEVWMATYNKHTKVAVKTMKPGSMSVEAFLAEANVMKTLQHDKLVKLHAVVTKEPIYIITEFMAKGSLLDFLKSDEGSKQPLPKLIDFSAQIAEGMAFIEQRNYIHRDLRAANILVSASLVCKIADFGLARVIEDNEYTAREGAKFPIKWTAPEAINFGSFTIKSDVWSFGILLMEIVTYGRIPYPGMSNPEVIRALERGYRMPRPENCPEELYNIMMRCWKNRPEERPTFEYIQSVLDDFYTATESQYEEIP
T4 sequence (P08631 22-256): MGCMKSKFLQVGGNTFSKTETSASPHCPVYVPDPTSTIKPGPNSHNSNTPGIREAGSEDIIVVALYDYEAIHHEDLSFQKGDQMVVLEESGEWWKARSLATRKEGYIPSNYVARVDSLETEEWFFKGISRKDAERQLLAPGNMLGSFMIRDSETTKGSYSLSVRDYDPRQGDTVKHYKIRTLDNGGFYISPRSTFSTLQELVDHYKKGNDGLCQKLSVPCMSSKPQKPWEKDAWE
T1 sequence (P08631 22-256): as above

`CC(C)Nc1ccnc(NCc2cccnc2Oc2ccc(F)cc2F)n1` [Compound 1] was tested, and the Kd (Hck U-SH32-L (Hck-U32L)) was 36 ± 4 µM, the Kd (Fgr SH32) was 104 ± 3 µM and the Kd (Hck SH32-L) was 83 ± 19 µM. The IC50 (Hck U32L protein) was 52.9 µM and 53.2 µM, the Kd (Hck-YEEI) was 103 ± 4 µM and the Kd (Fgr-YEEI) was 141 ± 4 µM. It also gave a Kd (Fgr U-SH32-L) of 131 ± 6 µM.
`Cc1cnc(NCc2ccccc2-n2ccnc2)nc1N(C)C` [Compound 2] was tested, and the Kd (Hck U-SH32-L (Hck-U32L)) was 30 µM, the Kd (Fgr SH32) was 352 ± 1 µM and the “Fold increase of KD with SH3-SH2-linker protein lacking the unique domain vs Hck-U32L” value (Hck SH32-L) was “about 3 fold”. For the same compound, the “Reduction of extent of binding with SH3-SH2-linker protein lacking the unique domain vs Hck-U32L” value (Hck SH32-L) was “about 50%”, the Kd (Hck SH32-L) was 96 ± 2 µM and the IC50 (Hck U32L protein) was 11.3 µM and 16.7 µM. For the same compound, the Kd (Hck-YEEI) was 93 ± 1 µM, the Kd (Fgr-YEEI) was 107 ± 1 µM and the Kd (Fgr U-SH32-L) was 70 ± 5 µM.
`CNc1ccnc(NCCC23CCCN2CCC3)n1` [Compound 3] was tested, and the Kd (Hck U-SH32-L (Hck-U32L)) was 55 ± 5 µM, the “KD, Fgr proteins SH32” value (Fgr SH32) was “did not bind” and the Kd (Hck SH32-L) was 905 ± 18 µM. For the same compound, the IC50 (Hck U32L protein) was 36.3 µM and 31 µM, the Kd (Hck-YEEI) was 142 ± 1 µM and the “KD, Fgr proteins Fgr-YEEI” value (Fgr-YEEI) was “did not bind”. For the same compound, the “KD, Fgr proteins U-SH32-L” value (Fgr U-SH32-L) was “did not bind”.
With `Cc1cnc(NCc2ccccc2CN2CCCC2=O)nc1N(C)C` [Compound 4] the Kd (Hck U-SH32-L (Hck-U32L)) was 831 µM, the Kd (Fgr SH32) was 69 ± 1 µM and the Kd (Hck SH32-L) was 338 ± 4 µM. The IC50 (Hck U32L protein) was 36.1 µM and 59.6 µM, the Kd (Hck-YEEI) was 180 ± 1 µM and the Kd (Fgr-YEEI) was 64 ± 2 µM. For the same compound, the Kd (Fgr U-SH32-L) was 102 ± 4 µM.
